From patent publication US5444087A, “Manumycin compounds” (Bristol-Myers Squibb Company, priority 1993, dated 1995)
Converted amounts (≈) assume the structure as drawn.

How the values were obtained:
[1] = system: Staphylococcus aureus A9537; assay: MIC by broth dilution assay, S. aureus A9537; assay type: cell-based; settings: serial broth dilution, nutrient broth
[2] = system: Staphylococcus aureus A9606; assay: MIC by broth dilution assay, S. aureus A9606; assay type: cell-based; settings: serial broth dilution, nutrient broth
[3] = system: Staphylococcus epidermidis A24548; assay: MIC by broth dilution assay, S. epidermidis A24548; assay type: cell-based; settings: serial broth dilution, nutrient broth
Bacillus subtilis A9506 = assay: MIC by broth dilution assay, B. subtilis A9506; assay type: cell-based; settings: serial broth dilution, nutrient broth
[4] = system: Salmonella typhimurium A27908; assay: MIC by broth dilution assay, S. typhimurium A27908; assay type: cell-based; settings: Salmonella enterica, serial broth dilution, nutrient broth
Micrococcus luteus A9852 = assay: MIC by broth dilution assay, M. luteus A9852; assay type: cell-based; settings: serial broth dilution, nutrient broth
M. luteus A21349 = assay: MIC by broth dilution assay, M. luteus A21349; assay type: cell-based; settings: Micrococcus luteus, serial broth dilution, nutrient broth
Escherichia coli SGB888 = assay: MIC by broth dilution assay, E. coli SGB888; assay type: cell-based; settings: serial broth dilution, nutrient broth
Proteus mirabilis A9900 = assay: MIC by broth dilution assay, P. mirabilis A9900; assay type: cell-based; settings: serial broth dilution, nutrient broth
[5] = system: Klebsiella pnneumoniae A9664; assay: MIC by broth dilution assay, K. pneumoniae A9664; assay type: cell-based; settings: serial broth dilution, nutrient broth
[6] = system: Enterobacter cloacae A9656; assay: MIC by broth dilution assay, E. cloacae A9656; assay type: cell-based; settings: serial broth dilution, nutrient broth
[7] = system: Pseudomonas aeruginosa A9843; assay: MIC by broth dilution assay, P. aeruginosa A9843; assay type: cell-based; settings: serial broth dilution, nutrient broth
[8] = molecular target: farnesylation of Ras protein p21 (protein-cysteine farnesyltransferase); assay: Inhibition of farnesylation of Ras protein p21 (assay of Manne et al.); assay type: biochemical; settings: assay described by Manne et al. (1990); read-out: IC50 value in inhibiting the farnesylation of Ras protein p21
Solubility = assay type: physicochemical

Row | SMILES | MIC [1] [µg/mL] | MIC [2] [µg/mL] | MIC [3] [µg/mL] | MIC (Bacillus subtilis A9506) [µg/mL] | MIC [4] [µg/mL] | MIC (Micrococcus luteus A9852) [µg/mL] | MIC (M. luteus A21349) [µg/mL] | MIC (Escherichia coli SGB888) [µg/mL] | MIC (Proteus mirabilis A9900) [µg/mL] | MIC [5] [µg/mL] | MIC [6] [µg/mL] | MIC [7] [µg/mL] | IC50 [8] [µM] | solubility in acetone (Solubility) | solubility in acetonitrile (Solubility) | solubility in dimethyl sulfoxide (Solubility) | solubility in hexane (Solubility) | solubility in water (Solubility)
1 | CC(C)CC/C=C/C=C/C=C/C(=O)NC1=CC(O)(/C=C/C=C/C=C/C(=O)NC2=C(O)CCC2=O)C2OC2C1=O (stereo not drawn) [Manumycin C, 2,4,6-heptatrienenamide, 7-isopentyl-N-[5-hydroxy-5-[7-[2-hydroxy-5-oxo-1-cyclopenten-1-yl-amino]-7-oxo-1,3,5-heptatrienyl]-2-oxo-7-oxabicyclo[4.1.0]hept-3-en-yl]-, (all-E)-] | 2 (≈ 3.74 µM) | 4 (≈ 7.48 µM) | 2 (≈ 3.74 µM) | 1 (≈ 1.87 µM) | 2 (≈ 3.74 µM) | 8 (≈ 15 µM) | 4 (≈ 7.48 µM) | 0.32 (≈ 0.599 µM) | 128 (≈ 239 µM) | 128 (≈ 239 µM) | 128 (≈ 239 µM) | 64 (≈ 120 µM) | 100 | soluble | soluble | soluble | insoluble | insoluble
2 | O=C(/C=C/C=C/C=C/C1CCCCC1)NC1=CC(O)(/C=C/C=C/C=C/C(=O)NC2=C(O)CCC2=O)C2OC2C1=O (stereo not drawn) [Manumycin D, 2,4,6-heptatrienenamide, 7-cyclohexyl-N-[5-hydroxy-5-[7-[2-hydroxy-5-oxo-1-cyclopenten-1-yl-amino]-7-oxo-1,3,5-heptatrienyl]-2-oxo-7-oxabicyclo[4.1.0]hept-3-en-yl]-, (all-E)-] | 1 (≈ 1.83 µM) | 2 (≈ 3.66 µM) | 1 (≈ 1.83 µM) | 0.5 (≈ 0.915 µM) | 0.5 (≈ 0.915 µM) | 2 (≈ 3.66 µM) | 1 (≈ 1.83 µM) | 0.1 (≈ 0.183 µM) | 128 (≈ 234 µM) | 128 (≈ 234 µM) | 128 (≈ 234 µM) | 128 (≈ 234 µM) | 92.5 | soluble | soluble | soluble | insoluble | insoluble
3 | CC(C)/C=C/C=C/C=C/C(=O)NC1=CC(O)(/C=C/C=C/C=C/C(=O)NC2=C(O)CCC2=O)C2OC2C1=O (stereo not drawn) [Manumycin E, 2,4,6-heptatrienenamide, 7-isopropyl-N-[5-hydroxy-5-[7-[2-hydroxy-5-oxo-1-cyclopenten-1-yl-amino]-7-oxo-1,3,5-heptatrienyl]-2-oxo-7-oxabicyclo[4.1.0]hept-3-en-yl]-, (all-E)-] | 8 (≈ 15.8 µM) | 8 (≈ 15.8 µM) | 8 (≈ 15.8 µM) | 8 (≈ 15.8 µM) | 32 (≈ 63.2 µM) | 16 (≈ 31.6 µM) | 16 (≈ 31.6 µM) | 2.5 (≈ 4.94 µM) | 128 (≈ 253 µM) | 128 (≈ 253 µM) | 128 (≈ 253 µM) | 128 (≈ 253 µM) | 120 | soluble | soluble | soluble | insoluble | insoluble
